# Where two headings read alike, the source gives them in different places.
# How the values were obtained:
# Assay type in all cases: cell-based, mouse
# [1] = system: β-galactosidase in CMV-LacZ C2C12 myotubes; test: CMV-LacZ secondary screen in C2C12 myotubes (β-Gal stabilizing assay); conditions: C2C12 CMV-LacZ myotubes, fold relative to DMSO
# Method in brief: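 CMV-LacZ C2C12 line (clonal, FDG-screened); myoblasts/myotubes dosed 0.5–40 μM (0.5, 1, 5, 10, 20, 40 μM); n=2 per point; β-gal stabilization read-out.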
# [2] = system: β-galactosidase in CMV-LacZ C2C12 myoblasts; test: CMV-LacZ secondary screen in C2C12 myoblasts (β-Gal stabilizing assay); conditions: CMV-LacZ C2C12 myoblasts
# Source text: In order to determine compounds that acted to stabilize β-gal in myogenic cells, a CMV-LacZ C2C12 cell line was used in a secondary screen. The EGFP gene from the pEGFP (Clontech) vector was replaced by LACZ PCR product with digests of the vector/PCR product performed using EcoRI (NEB) and NotI (NEB) and ligated using T4 DNA Ligase (NEB) following standard procedures to produce the CMV-LACZ vector. The LACZ gene was generated by PCR from the pBK-RSV (Stratagene) vector using primers LACZ EcoRI F- and LACZ NotI R-. The CMV-LACZ vector was then digested with AfIII (NEB) to linearize the construct, which was then transfected in C2C12 myoblasts using Lipofectamine 2000 (Invitrogen) following the manufacturer's instructions. […] Clonal lines were selected and screened for βgal levels using the myoblast FDG assay.
# The assays were used the original 96-well format and new dose-response curves for myoblasts (N=3-6 replicates for each data point), myotubes (N=3-6 replicates for data point), and CMV-LacZ secondary assay (N=2 replicates for each data point) using concentrations of 0.5 μM, 1 μM, 5 μM, 10 μM, 20 μM, and 40 μM (Tables 9-16).
# [3] = system: α7 integrin (LacZ reporter in α7βgal+/− myoblasts); test: Myoblast α7+/LacZ integrin FDG assay (Burkin assay in myoblasts, 96-well); conditions: α7+/LacZ myoblasts, 96-well; for fold induction at 0.5 µM / fold induction at 1 µM / fold induction at 5 µM / fold induction at 10 µM / fold induction at 20 µM / fold induction at 40 µM: Mus musculus, Myoblast, 48 h
# [4] = system: α7 integrin (LacZ reporter in α7+/LacZ myotubes); test: Myotube α7 integrin FDG assay (Burkin assay in myotubes, 96-well); conditions: myotubes; for fold induction at 0.5 µM / fold induction at 1 µM / fold induction at 5 µM / fold induction at 10 µM / fold induction at 20 µM / fold induction at 40 µM: Mus musculus, Myotube
compound,measurement,setting,value
N#CC1=C2SCN(c3ccccc3)CN2C(=O)CC1c1cccs1 (stereo not drawn) [MLS000080654-01],"CMV-LACZ in Myotubes, signal relative to DMSO",[1]; 0.5 uM,1.1229
same,"CMV-LACZ in Myotubes, signal relative to DMSO",[1]; 1 uM,1.0086
same,"CMV-LACZ in Myotubes, signal relative to DMSO",[1]; 5 uM,1.0335
same,"CMV-LACZ in Myotubes, signal relative to DMSO",[1]; 10 uM,1.0399
same,"CMV-LACZ in Myotubes, signal relative to DMSO",[1]; 20 uM,1.1871
same,"CMV-LACZ in Myotubes, signal relative to DMSO",[1]; 40 uM,1.4259
same,CMV-LACZ in Myoblasts (β-galactosidase activity relative to DMSO),[2]; 0.5 uM,1.1851
same,CMV-LACZ in Myoblasts (β-galactosidase activity relative to DMSO),[2]; 1 uM,1.4314
same,CMV-LACZ in Myoblasts (β-galactosidase activity relative to DMSO),[2]; 5 uM,1.0703
same,CMV-LACZ in Myoblasts (β-galactosidase activity relative to DMSO),[2]; 10 uM,0.9345
same,CMV-LACZ in Myoblasts (β-galactosidase activity relative to DMSO),[2]; 20 uM,1.0174
same,CMV-LACZ in Myoblasts (β-galactosidase activity relative to DMSO),[2]; 40 uM,0.8815
same,"Burkin Assay in Myoblasts, signal relative to DMSO",[3]; 0.5 uM,0.9788
same,"Burkin Assay in Myoblasts, signal relative to DMSO",[3]; 1 uM,0.923
same,"Burkin Assay in Myoblasts, signal relative to DMSO",[3]; 5 uM,0.9235
same,"Burkin Assay in Myoblasts, signal relative to DMSO",[3]; 10 uM,0.9429
same,"Burkin Assay in Myoblasts, signal relative to DMSO",[3]; 20 uM,1.112
same,"Burkin Assay in Myoblasts, signal relative to DMSO",[3]; 40 uM,0.9166
same,"Burkin Assay in Myotubes, α7 integrin LacZ reporter signal relative to DMSO",[4]; 0.5 uM,1.067
same,"Burkin Assay in Myotubes, α7 integrin LacZ reporter signal relative to DMSO",[4]; 1 uM,1.092
same,"Burkin Assay in Myotubes, α7 integrin LacZ reporter signal relative to DMSO",[4]; 5 uM,0.9044
same,"Burkin Assay in Myotubes, α7 integrin LacZ reporter signal relative to DMSO",[4]; 10 uM,0.9707
same,"Burkin Assay in Myotubes, α7 integrin LacZ reporter signal relative to DMSO",[4]; 20 uM,0.7422
same,"Burkin Assay in Myotubes, α7 integrin LacZ reporter signal relative to DMSO",[4]; 40 uM,0.6217
CCOC(=O)C1CCCN(C(=O)CNS(=O)(=O)c2ccc(Br)s2)C1 (stereo not drawn) [MLS000086970-01],fold induction at 0.5 µM,"[1]; Mus musculus, C2C12, read-out: CMV-LACZ in Myotubes, signal relative to DMSO, 0.5 uM",0.967
same,fold induction at 1 µM,"[1]; Mus musculus, C2C12, read-out: CMV-LACZ in Myotubes, signal relative to DMSO, 1 uM",0.885
same,fold induction at 5 µM,"[1]; Mus musculus, C2C12, read-out: CMV-LACZ in Myotubes, signal relative to DMSO, 5 uM",1.11
same,fold induction at 10 µM,"[1]; Mus musculus, C2C12, read-out: CMV-LACZ in Myotubes, signal relative to DMSO, 10 uM",0.974
same,fold induction at 20 µM,"[1]; Mus musculus, C2C12, read-out: CMV-LACZ in Myotubes, signal relative to DMSO, 20 uM",0.987
same,fold induction at 40 µM,"[1]; Mus musculus, C2C12, read-out: CMV-LACZ in Myotubes, signal relative to DMSO, 40 uM",0.988
same,CMV-LACZ in Myoblasts (β-galactosidase activity relative to DMSO),[2]; 0.5 uM,0.9925
same,CMV-LACZ in Myoblasts (β-galactosidase activity relative to DMSO),[2]; 1 uM,1.0504
same,CMV-LACZ in Myoblasts (β-galactosidase activity relative to DMSO),[2]; 5 uM,0.8994
same,CMV-LACZ in Myoblasts (β-galactosidase activity relative to DMSO),[2]; 10 uM,0.9068
same,CMV-LACZ in Myoblasts (β-galactosidase activity relative to DMSO),[2]; 20 uM,1.0197
same,CMV-LACZ in Myoblasts (β-galactosidase activity relative to DMSO),[2]; 40 uM,0.8880
same,fold induction at 0.5 µM,"[3]; 0.5 uM, read-out: Burkin Assay in Myoblasts, signal relative to DMSO",0.982
same,fold induction at 0.5 µM,"[3]; 0.5 uM, read-out: Burkin Assay in Myoblasts, value relative to DMSO",1.01
same,fold induction at 1 µM,"[3]; 1 uM, read-out: Burkin Assay in Myoblasts, signal relative to DMSO",1.07
same,fold induction at 1 µM,"[3]; 1 uM, read-out: Burkin Assay in Myoblasts, value relative to DMSO",1.2
same,fold induction at 5 µM,"[3]; 5 uM, read-out: Burkin Assay in Myoblasts, signal relative to DMSO",0.858
same,fold induction at 5 µM,"[3]; 5 uM, read-out: Burkin Assay in Myoblasts, value relative to DMSO",1.6
same,fold induction at 10 µM,"[3]; 10 uM, read-out: Burkin Assay in Myoblasts, signal relative to DMSO",0.872
same,fold induction at 10 µM,"[3]; 10 uM, read-out: Burkin Assay in Myoblasts, value relative to DMSO",0.955
same,fold induction at 20 µM,"[3]; 20 uM, read-out: Burkin Assay in Myoblasts, signal relative to DMSO",0.854
same,fold induction at 20 µM,"[3]; 20 uM, read-out: Burkin Assay in Myoblasts, value relative to DMSO",1.02
same,fold induction at 40 µM,"[3]; 40 uM, read-out: Burkin Assay in Myoblasts, signal relative to DMSO",0.781
same,fold induction at 40 µM,"[3]; 40 uM, read-out: Burkin Assay in Myoblasts, value relative to DMSO",0.934
same,fold induction at 0.5 µM,"[4]; 0.5 uM, read-out: Burkin Assay in Myotubes (signal relative to DMSO)",0.953
same,fold induction at 1 µM,"[4]; 1 uM, read-out: Burkin Assay in Myotubes (signal relative to DMSO)",0.922
same,fold induction at 5 µM,"[4]; 5 uM, read-out: Burkin Assay in Myotubes (signal relative to DMSO)",1.09
same,fold induction at 10 µM,"[4]; 10 uM, read-out: Burkin Assay in Myotubes (signal relative to DMSO)",0.961
same,fold induction at 20 µM,"[4]; 20 uM, read-out: Burkin Assay in Myotubes (signal relative to DMSO)",0.931
same,fold induction at 40 µM,"[4]; 40 uM, read-out: Burkin Assay in Myotubes (signal relative to DMSO)",0.887
same,fold induction at 0.5 µM,"[4]; 0.5 uM, read-out: Burkin Assay in Myotubes, α7 integrin LacZ reporter signal relative to DMSO",1
same,fold induction at 1 µM,"[4]; 1 uM, read-out: Burkin Assay in Myotubes, α7 integrin LacZ reporter signal relative to DMSO",1.09
same,fold induction at 5 µM,"[4]; 5 uM, read-out: Burkin Assay in Myotubes, α7 integrin LacZ reporter signal relative to DMSO",0.864
same,fold induction at 10 µM,"[4]; 10 uM, read-out: Burkin Assay in Myotubes, α7 integrin LacZ reporter signal relative to DMSO",0.958
same,fold induction at 20 µM,"[4]; 20 uM, read-out: Burkin Assay in Myotubes, α7 integrin LacZ reporter signal relative to DMSO",0.961
same,fold induction at 40 µM,"[4]; 40 uM, read-out: Burkin Assay in Myotubes, α7 integrin LacZ reporter signal relative to DMSO",0.971
CCN(CC)C(=O)c1sc2nc(-c3ccc(OC)cc3)cn2c1C [MLS000089464-01],"CMV-LACZ in Myotubes, signal relative to DMSO",[1]; 0.5 uM,0.9716
same,"CMV-LACZ in Myotubes, signal relative to DMSO",[1]; 1 uM,1.3716
same,"CMV-LACZ in Myotubes, signal relative to DMSO",[1]; 5 uM,0.9400
same,"CMV-LACZ in Myotubes, signal relative to DMSO",[1]; 10 uM,0.9529
same,"CMV-LACZ in Myotubes, signal relative to DMSO",[1]; 20 uM,1.3067
same,"CMV-LACZ in Myotubes, signal relative to DMSO",[1]; 40 uM,1.0178
same,CMV-LACZ in Myoblasts (β-galactosidase activity relative to DMSO),[2]; 0.5 uM,0.9117
same,CMV-LACZ in Myoblasts (β-galactosidase activity relative to DMSO),[2]; 1 uM,0.9160
same,CMV-LACZ in Myoblasts (β-galactosidase activity relative to DMSO),[2]; 5 uM,0.9372
same,CMV-LACZ in Myoblasts (β-galactosidase activity relative to DMSO),[2]; 10 uM,1.1969
same,CMV-LACZ in Myoblasts (β-galactosidase activity relative to DMSO),[2]; 20 uM,0.7500
same,CMV-LACZ in Myoblasts (β-galactosidase activity relative to DMSO),[2]; 40 uM,0.5274
same,"Burkin Assay in Myoblasts, signal relative to DMSO",[3]; 0.5 uM,0.9965
same,"Burkin Assay in Myoblasts, signal relative to DMSO",[3]; 1 uM,0.9802
same,"Burkin Assay in Myoblasts, signal relative to DMSO",[3]; 5 uM,0.934
same,"Burkin Assay in Myoblasts, signal relative to DMSO",[3]; 10 uM,0.7825
same,"Burkin Assay in Myoblasts, signal relative to DMSO",[3]; 20 uM,0.5631
same,"Burkin Assay in Myoblasts, signal relative to DMSO",[3]; 40 uM,0.3911
same,"Burkin Assay in Myotubes, α7 integrin LacZ reporter signal relative to DMSO",[4]; 0.5 uM,1.063
same,"Burkin Assay in Myotubes, α7 integrin LacZ reporter signal relative to DMSO",[4]; 1 uM,1.029
same,"Burkin Assay in Myotubes, α7 integrin LacZ reporter signal relative to DMSO",[4]; 5 uM,1.128
same,"Burkin Assay in Myotubes, α7 integrin LacZ reporter signal relative to DMSO",[4]; 10 uM,0.9917
same,"Burkin Assay in Myotubes, α7 integrin LacZ reporter signal relative to DMSO",[4]; 20 uM,0.9545
same,"Burkin Assay in Myotubes, α7 integrin LacZ reporter signal relative to DMSO",[4]; 40 uM,0.8373

# Source: US9980943B2, “Methods of treating muscular dystrophy” (BOARD OF REGENTS OF THE NEVADA SYSTEM OF HIGHER EDUCATION, …, priority 2013, dated 2018)
